{
  "source": "ChEMBL document CHEMBL3797052",
  "about": "(Eur J Med Chem, 2016)",
  "data": [
    {"tested_on": "NCI-H226", "test": "(§1) Antiproliferative activity against human NCI-H226 cells assessed as growth inhibition after 48 hrs by sulforhodamine B assay", "format": "functional", "conditions": "NCI-H226, 48 h", "units": {"TGI": "µM"}, "values": [
      {"smiles": "CNC(=O)c1cc(Oc2ccc3nc(NC(=O)Nc4ccc(Cl)c(C(F)(F)F)c4)sc3c2)ccn1", "TGI": 7.47}
    ]},
    {"tested_on": "NCI-H226", "test": "as §1", "format": "functional", "conditions": "NCI-H226, 48 h, read-out: LC50 (the source's name)", "units": {"CC50": "µM"}, "values": [
      {"smiles": "CNC(=O)c1cc(Oc2ccc3nc(NC(=O)Nc4ccc(Cl)c(C(F)(F)F)c4)sc3c2)ccn1", "CC50": "> 100"}
    ]},
    {"tested_on": "KM12", "test": "Antiproliferative activity against human KM12 cells assessed as cell growth at 10^-7 M after 48 hrs by sulforhodamine B assay", "format": "functional", "conditions": "KM12, 48 h, read-out: Activity", "units": {"growth at 0.1 µM": "%"}, "values": [
      {"smiles": "CNC(=O)c1cc(Oc2ccc3nc(NC(=O)Nc4ccc(Cl)c(C(F)(F)F)c4)sc3c2)ccn1", "growth at 0.1 µM": 102}
    ]},
    {"tested_on": "not listed separately", "test": "Antiproliferative activity against human HCC2998 cells assessed as cell growth at 10^-8 M after 48 hrs by sulforhodamine B assay", "format": "functional", "conditions": "HCC 2998, 48 h, read-out: Activity", "units": {"growth at 0.01 µM": "%"}, "values": [
      {"smiles": "CNC(=O)c1cc(Oc2ccc3nc(NC(=O)Nc4ccc(Cl)c(C(F)(F)F)c4)sc3c2)ccn1", "growth at 0.01 µM": 107}
    ]},
    {"tested_on": "Malme-3M", "test": "Antiproliferative activity against human MALME-3M cells assessed as growth inhibition after 48 hrs by sulforhodamine B assay", "format": "functional", "conditions": "not given", "units": {"GI50": "µM", "TGI": "µM"}, "values": [
      {"smiles": "CNC(=O)c1cc(Oc2ccc3nc(NC(=O)Nc4ccc(Cl)c(C(F)(F)F)c4)sc3c2)ccn1", "GI50": 1.61, "TGI": 3.63}
    ]},
    {"tested_on": "not listed separately", "test": "Antiproliferative activity against human IGROV1 cells assessed as cell growth at 10^-7 M after 48 hrs by sulforhodamine B assay", "format": "functional", "conditions": "IGROV-1, 48 h, read-out: Activity", "units": {"growth at 0.1 µM": "%"}, "values": [
      {"smiles": "CNC(=O)c1cc(Oc2ccc3nc(NC(=O)Nc4ccc(Cl)c(C(F)(F)F)c4)sc3c2)ccn1", "growth at 0.1 µM": 97}
    ]},
    {"tested_on": "EKVX", "test": "Antiproliferative activity against human EKVX cells assessed as cell growth at 10^-4 M after 48 hrs by sulforhodamine B assay", "format": "functional", "conditions": "read-out: Activity", "units": {"growth at 100 µM": "%"}, "values": [
      {"smiles": "CNC(=O)c1cc(Oc2ccc3nc(NC(=O)Nc4ccc(Cl)c(C(F)(F)F)c4)sc3c2)ccn1", "growth at 100 µM": -32}
    ]},
    {"tested_on": "not listed separately", "test": "Antiproliferative activity against human OVCAR5 cells assessed as cell growth at 10^-7 M after 48 hrs by sulforhodamine B assay", "format": "functional", "conditions": "OVCAR-5, 48 h, read-out: Activity", "units": {"growth at 0.1 µM": "%"}, "values": [
      {"smiles": "CNC(=O)c1cc(Oc2ccc3nc(NC(=O)Nc4ccc(Cl)c(C(F)(F)F)c4)sc3c2)ccn1", "growth at 0.1 µM": 95}
    ]},
    {"tested_on": "not listed separately", "test": "Antiproliferative activity against human HCT15 cells assessed as cell growth at 10^-7 M after 48 hrs by sulforhodamine B assay", "format": "functional", "conditions": "HCT-15, 48 h, read-out: Activity", "units": {"growth at 0.1 µM": "%"}, "values": [
      {"smiles": "CNC(=O)c1cc(Oc2ccc3nc(NC(=O)Nc4ccc(Cl)c(C(F)(F)F)c4)sc3c2)ccn1", "growth at 0.1 µM": 96}
    ]},
    {"tested_on": "not listed separately", "test": "Antiproliferative activity against human MOLT4 cells assessed as growth inhibition after 48 hrs by sulforhodamine B assay", "format": "functional", "conditions": "MOLT-4, 48 h", "units": {"LC50": "µM", "TGI": "µM"}, "values": [
      {"smiles": "CNC(=O)c1cc(Oc2ccc3nc(NC(=O)Nc4ccc(Cl)c(C(F)(F)F)c4)sc3c2)ccn1", "LC50": "> 100", "TGI": "> 100"}
    ]},
    {"tested_on": "M14", "test": "Antiproliferative activity against human M14 cells assessed as cell growth at 10^-6 M after 48 hrs by sulforhodamine B assay", "format": "functional", "conditions": "M14, 48 h, read-out: Activity", "units": {"growth at 1 µM": "%"}, "values": [
      {"smiles": "CNC(=O)c1cc(Oc2ccc3nc(NC(=O)Nc4ccc(Cl)c(C(F)(F)F)c4)sc3c2)ccn1", "growth at 1 µM": 83}
    ]},
    {"tested_on": "A498", "test": "Antiproliferative activity against human A498 cells assessed as cell growth at 10^-7 M after 48 hrs by sulforhodamine B assay", "format": "functional", "conditions": "A498, 48 h, read-out: Activity", "units": {"growth at 0.1 µM": "%"}, "values": [
      {"smiles": "CNC(=O)c1cc(Oc2ccc3nc(NC(=O)Nc4ccc(Cl)c(C(F)(F)F)c4)sc3c2)ccn1", "growth at 0.1 µM": 97}
    ]},
    {"tested_on": "not listed separately", "test": "Antiproliferative activity against human HCT116 cells assessed as cell growth at 10^-8 M after 48 hrs by sulforhodamine B assay", "format": "functional", "conditions": "HCT-116, 48 h, read-out: Activity", "units": {"growth at 0.01 µM": "%"}, "values": [
      {"smiles": "CNC(=O)c1cc(Oc2ccc3nc(NC(=O)Nc4ccc(Cl)c(C(F)(F)F)c4)sc3c2)ccn1", "growth at 0.01 µM": 101}
    ]},
    {"tested_on": "not listed separately", "test": "Antiproliferative activity against human Hs 578T cells assessed as cell growth at 10^-4 M after 48 hrs by sulforhodamine B assay", "format": "functional", "conditions": "read-out: Activity", "units": {"growth at 100 µM": "%"}, "values": [
      {"smiles": "CNC(=O)c1cc(Oc2ccc3nc(NC(=O)Nc4ccc(Cl)c(C(F)(F)F)c4)sc3c2)ccn1", "growth at 100 µM": -12}
    ]},
    {"tested_on": "786-0", "test": "Antiproliferative activity against human 786-0 cells assessed as cell growth at 10^-8 M after 48 hrs by sulforhodamine B assay", "format": "functional", "conditions": "786-0, 48 h, read-out: Activity", "units": {"growth at 0.01 µM": "%"}, "values": [
      {"smiles": "CNC(=O)c1cc(Oc2ccc3nc(NC(=O)Nc4ccc(Cl)c(C(F)(F)F)c4)sc3c2)ccn1", "growth at 0.01 µM": 97}
    ]},
    {"tested_on": "T47D", "test": "Antiproliferative activity against human T47D cells assessed as cell growth at 10^-6 M after 48 hrs by sulforhodamine B assay", "format": "functional", "conditions": "read-out: Activity", "units": {"growth at 1 µM": "%"}, "values": [
      {"smiles": "CNC(=O)c1cc(Oc2ccc3nc(NC(=O)Nc4ccc(Cl)c(C(F)(F)F)c4)sc3c2)ccn1", "growth at 1 µM": 43}
    ]},
    {"tested_on": "KM12", "test": "Antiproliferative activity against human KM12 cells assessed as cell growth at 10^-6 M after 48 hrs by sulforhodamine B assay", "format": "functional", "conditions": "KM12, 48 h, read-out: Activity", "units": {"growth at 1 µM": "%"}, "values": [
      {"smiles": "CNC(=O)c1cc(Oc2ccc3nc(NC(=O)Nc4ccc(Cl)c(C(F)(F)F)c4)sc3c2)ccn1", "growth at 1 µM": 85}
    ]},
    {"tested_on": "M14", "test": "Antiproliferative activity against human M14 cells assessed as cell growth at 10^-7 M after 48 hrs by sulforhodamine B assay", "format": "functional", "conditions": "M14, 48 h, read-out: Activity", "units": {"growth at 0.1 µM": "%"}, "values": [
      {"smiles": "CNC(=O)c1cc(Oc2ccc3nc(NC(=O)Nc4ccc(Cl)c(C(F)(F)F)c4)sc3c2)ccn1", "growth at 0.1 µM": 92}
    ]},
    {"tested_on": "not listed separately", "test": "Antiproliferative activity against human SF295 cells assessed as cell growth at 10^-4 M after 48 hrs by sulforhodamine B assay", "format": "functional", "conditions": "SF-295, 48 h, read-out: Activity", "units": {"growth at 100 µM": "%"}, "values": [
      {"smiles": "CNC(=O)c1cc(Oc2ccc3nc(NC(=O)Nc4ccc(Cl)c(C(F)(F)F)c4)sc3c2)ccn1", "growth at 100 µM": -82}
    ]},
    {"tested_on": "MDA-MB-435", "test": "Antiproliferative activity against human MDA-MB-435 cells assessed as cell growth at 10^-8 M after 48 hrs by sulforhodamine B assay", "format": "functional", "conditions": "MDA-MB-435, 48 h, read-out: Activity", "units": {"growth at 0.01 µM": "%"}, "values": [
      {"smiles": "CNC(=O)c1cc(Oc2ccc3nc(NC(=O)Nc4ccc(Cl)c(C(F)(F)F)c4)sc3c2)ccn1", "growth at 0.01 µM": 91}
    ]},
    {"tested_on": "not listed separately", "test": "Antiproliferative activity against human NCI-ADR-RES cells assessed as cell growth at 10^-4 M after 48 hrs by sulforhodamine B assay", "format": "functional", "conditions": "read-out: Activity", "units": {"growth at 100 µM": "%"}, "values": [
      {"smiles": "CNC(=O)c1cc(Oc2ccc3nc(NC(=O)Nc4ccc(Cl)c(C(F)(F)F)c4)sc3c2)ccn1", "growth at 100 µM": 11}
    ]},
    {"tested_on": "not listed separately", "test": "Antiproliferative activity against human LOXIMVI cells assessed as cell growth at 10^-4 M after 48 hrs by sulforhodamine B assay", "format": "functional", "conditions": "LOX IMVI, read-out: Activity", "units": {"growth at 100 µM": "%"}, "values": [
      {"smiles": "CNC(=O)c1cc(Oc2ccc3nc(NC(=O)Nc4ccc(Cl)c(C(F)(F)F)c4)sc3c2)ccn1", "growth at 100 µM": 11}
    ]}
  ]
}
